We go through 24 molecules from ChEMBL document CHEMBL1201862, “PubChem BioAssay data set” (2004).

Among the test systems are DLD-1; DMS-114; HOP-18; XF498; SNB-78; KM-20L2; M19-MEL; DMS-273; RXF 631.
Common to all, as to assay: NCI anticancer screen, dose series, 48 h

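48-hour exposure; five concentrations; linearly interpolated endpoints. Abbreviation: GI50, concentration required for 50% inhibition of growth.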 Calls of active or inactive are those of the source. No stated cut-off is given here; in the data, active = GI50 up to about 1.1 µM and inactive = higher.

With `CCOC(=N)CC(=O)c1ccccc1`, the GI50 with DLD-1, in the assay with DMS-114, in the assay with HOP-18, in the assay with XF498, with SNB-78 and with KM-20L2 was > 100 µM (inactive) each time. Besides, the GI50 with M19-MEL and in the assay with DMS-273 was > 100 µM (inactive) in each case.
With `CC(C)=CC(=O)C1c2cccc(O)c2C(=O)c2c(O)cc(C)cc21` (configuration not stated), the GI50 was 2.87 µM (inactive) with DLD-1; 1.79 µM (inactive) with DMS-114; 2.15 µM (inactive) with HOP-18; 1.54 µM (inactive) with XF498; 2.86 µM (inactive) with SNB-78; 4.86 µM (inactive) with KM-20L2. For the same molecule, the GI50 is 1.81 µM (inactive) with M19-MEL and 3.48 µM (inactive) in the assay on DMS-273.
In the case of `Cc1nc2ccccc2c(=O)n1NC(=S)Nc1ccccc1`, the GI50 with DLD-1 is > 100 µM (inactive); in the assay on DMS-114, 71.1 µM (inactive); in the assay with HOP-18, > 100 µM (inactive); in the assay on M19-MEL, > 100 µM (inactive); in the assay on DMS-273 it was > 100 µM (inactive).
Consider `O=c1oc2c3ccc4ccccc4c3n(CCN3CCOCC3)c2c2ccccc12`, for which the GI50 in the assay with DLD-1 was > 100 µM (inactive); in the assay with DMS-114 it was > 100 µM (inactive); in the assay on HOP-18, > 100 µM (inactive); with KM-20L2, > 100 µM (inactive); in the assay on M19-MEL it was 3.76 µM (inactive).
With `COc1ccc(NC(=O)c2cc(OC)cc(OC)c2)cc1`, the GI50 was 17.1 µM (inactive) with DLD-1; 7.29 µM (inactive) in the assay on DMS-114; > 46.7 µM (inactive) in the assay with HOP-18; > 70.3 µM (inactive) with XF498; 26 µM (inactive) in the assay on SNB-78; 4.81 µM (inactive) in the assay with KM-20L2. Moreover, the GI50 in the assay with DMS-273 was 9.02 µM (inactive).
As for `COc1ccc(/N=N/c2c(-c3ccccc3)nn(C(=O)CC(=O)Nc3ccccc3Cl)c2-c2ccccc2)cc1`, the GI50 was > 100 µM (inactive) with DLD-1; 25.9 µM (inactive) in the assay with DMS-114; > 100 µM (inactive) with HOP-18; > 100 µM (inactive) in the assay with SNB-78; > 100 µM (inactive) in the assay on KM-20L2; > 100 µM (inactive) in the assay on M19-MEL. Besides, the GI50 with RXF 631 and in the assay on DMS-273 was > 100 µM (inactive) throughout.
Turning to `CCOc1ncnc2ccc(Cl)c(I)c12`, the GI50 with DLD-1 was 99.1 µM (inactive); with DMS-114, 45.1 µM (inactive); in the assay on XF498, 45.4 µM (inactive); in the assay with KM-20L2 it was > 100 µM (inactive); in the assay on M19-MEL it was > 100 µM (inactive); in the assay on DMS-273 it was > 100 µM (inactive).
For the molecule `CCC(C)C(=O)O[C@H]1C(=O)O[C@@H]2C[C@H]3C(C)=CC(=O)[C@@H](O)[C@]3(C)[C@H]3[C@@H](O)[C@H](O)[C@@]4(C)OC[C@]32[C@@H]14` (some centres not stated), the GI50 was 0.0293 µM (active) in the assay on DLD-1; 0.0152 µM (active) in the assay with DMS-114; 0.158 µM (active) with HOP-18; 0.0208 µM (active) in the assay with XF498; 0.0323 µM (active) in the assay with SNB-78; 0.0468 µM (active) with KM-20L2. In addition, the GI50 in the assay on M19-MEL is 0.0269 µM (active); in the assay on DMS-273 it was 0.019 µM (active).
Turning to `Cc1cc(C(=C2C=CC(=N)C=C2)c2ccc(N)cc2)ccc1N` [FUCHSIN, BASIC], the GI50 in the assay with DLD-1 was 3.45 µM (inactive); with DMS-114, 1.31 µM (inactive); in the assay with XF498 it was 2.77 µM (inactive); with SNB-78 it was 2.76 µM (inactive); in the assay with KM-20L2, 3.77 µM (inactive); in the assay on M19-MEL it was 4.21 µM (inactive).
For `COc1ccc2nc(NC(=O)C(=O)CC(=O)c3ccc(Cl)cc3)sc2c1`, the GI50 was > 100 µM (inactive) in the assay with DLD-1; > 100 µM (inactive) in the assay on DMS-114; 78.2 µM (inactive) in the assay on HOP-18; 46.9 µM (inactive) in the assay with XF498; > 100 µM (inactive) with SNB-78; 71.3 µM (inactive) with KM-20L2. In addition, the GI50 in the assay with M19-MEL and with DMS-273 was > 100 µM (inactive) in each case.
Regarding `COc1cc([C@@H]2c3cc4c(cc3[C@@H](NC(=O)c3ccc(N)cc3)C3COC(=O)[C@@H]32)OCO4)cc(OC)c1O` (some centres not stated), the GI50 with DLD-1 was 3.47 µM (inactive); in the assay on DMS-114, 2 µM (inactive); in the assay with HOP-18, > 100 µM (inactive); in the assay with KM-20L2, 1.73 µM (inactive); in the assay with M19-MEL, 12.5 µM (inactive); in the assay with DMS-273 it was 0.37 µM (active).
In the case of `CCCCCCC(C)OC(=O)/C=C(\CC(=O)OC(C)CCCCCC)C(=O)OC(C)CCCCCC` (configuration not stated), the GI50 in the assay on DLD-1, in the assay on DMS-114, with SNB-78, with KM-20L2, in the assay with M19-MEL and in the assay on DMS-273 was > 100 µM (inactive) each time.
On to `C=C(COC(C)=O)CC(/C=C(\C)CCC=C(C)C)OC(C)=O` (configuration not stated), for which the GI50 is > 100 µM (inactive) with DLD-1; > 100 µM (inactive) with DMS-114; 47.6 µM (inactive) in the assay with XF498; > 100 µM (inactive) in the assay with SNB-78; > 100 µM (inactive) with KM-20L2; > 100 µM (inactive) in the assay with M19-MEL. Besides, in the assay on DMS-273, the GI50 was > 100 µM (inactive).
As for `O=C(NC(=O)c1ccccc1[N+](=O)[O-])Nc1ccc(Oc2ncc(Cl)cn2)c(C(F)(F)F)c1`, the GI50 is < 0.0132 µM (active) with DLD-1; < 0.01 µM (active) in the assay with DMS-114; 53.1 µM (inactive) in the assay on HOP-18; 0.0103 µM (active) in the assay with XF498; < 0.01 µM (active) in the assay with SNB-78; < 0.0125 µM (active) in the assay with KM-20L2. For the same molecule, the GI50 is < 0.0171 µM (active) in the assay with M19-MEL and < 0.01 µM (active) with DMS-273.
In the case of `COC1OC(COCc2ccc(Cl)cc2)C(OCc2ccc(Cl)cc2)C1O` (configuration not stated), the GI50 was 16.2 µM (inactive) with DLD-1; 13.7 µM (inactive) in the assay with DMS-114; 12.8 µM (inactive) in the assay with HOP-18; 3.07 µM (inactive) with XF498; 17.3 µM (inactive) in the assay with KM-20L2; 19.2 µM (inactive) in the assay on M19-MEL. The GI50 in the assay with RXF 631 was 16.2 µM (inactive); in the assay with DMS-273, 17.3 µM (inactive).
On to `C=C1C(=O)OC2/C=C(\CO)C(OC(C)=O)CC(O)/C(C)=C/C(OC(=O)C(C)CC)C12` (configuration not stated), for which the GI50 with DLD-1 is 12.9 µM (inactive); with DMS-114, 23.6 µM (inactive); with HOP-18 it was 23.8 µM (inactive); with XF498, 15.8 µM (inactive); in the assay on SNB-78, 16.3 µM (inactive); in the assay with KM-20L2, 22.4 µM (inactive). Also, the GI50 was 16.8 µM (inactive) in the assay with M19-MEL, 33.5 µM (inactive) in the assay on RXF 631 and 19.1 µM (inactive) in the assay on DMS-273.
Take `N#CC(C(=O)/C(=N/N)C(C#N)c1ccc(Cl)cc1)c1ccc(Cl)cc1` (configuration not stated): the GI50 in the assay on DLD-1 is > 100 µM (inactive); with DMS-114, > 100 µM (inactive); in the assay with HOP-18, > 100 µM (inactive); in the assay on XF498, 57.3 µM (inactive); in the assay on SNB-78, > 100 µM (inactive); in the assay on KM-20L2 it was > 100 µM (inactive). For the same molecule, the GI50 in the assay on M19-MEL and in the assay on RXF 631 was > 100 µM (inactive) in each case.
`O=C1Nc2nc3ccccc3n2N=C2CCCC12` (configuration not stated): the GI50 in the assay on DLD-1, with DMS-114, in the assay with XF498, in the assay with SNB-78, with KM-20L2 and in the assay with M19-MEL was > 100 µM (inactive) in each case. In addition, the GI50 in the assay on RXF 631 and in the assay on DMS-273 was > 100 µM (inactive) each time.
For `O=C1c2ccccc2N2Oc3ccccc3C12c1ccccc1` (configuration not stated), the GI50 in the assay on DLD-1 was > 10 µM (inactive); in the assay on DMS-114 it was > 100 µM (inactive); in the assay on HOP-18, > 100 µM (inactive); in the assay with SNB-78, > 100 µM (inactive); in the assay with KM-20L2, > 100 µM (inactive); with M19-MEL, > 100 µM (inactive). In addition, the GI50 in the assay on DMS-273 is > 100 µM (inactive).
Turning to `COC12OCCN(CCO)C1=CC(=O)C1(C)N=NC(C)C12` (configuration not stated), the GI50 in the assay with DLD-1, with DMS-114, in the assay on HOP-18, in the assay on SNB-78, in the assay on M19-MEL and with RXF 631 was > 100 µM (inactive) each time. For the same molecule, the GI50 in the assay on DMS-273 was > 100 µM (inactive).
On to `O=C(CCn1[nH]c(=O)c(Cl)c(Cl)c1=O)NO`, for which the GI50 in the assay on DLD-1, in the assay with DMS-114, in the assay with HOP-18, in the assay on XF498, in the assay with KM-20L2 and with M19-MEL was > 100 µM (inactive) throughout. Besides, in the assay with DMS-273, the GI50 was > 100 µM (inactive).
With `COC(=O)C(C(=O)C(=O)NC1=C(Cl)C(=O)c2ccccc2C1=O)c1csc(-n2nc(-c3ccccc3)cc2-c2ccccc2)n1` (configuration not stated), the GI50 in the assay with DLD-1 was > 100 µM (inactive); in the assay on DMS-114, 10.2 µM (inactive); with HOP-18, 13.1 µM (inactive); with XF498, > 100 µM (inactive); in the assay with SNB-78, > 100 µM (inactive); with KM-20L2 it was > 100 µM (inactive). The GI50 with M19-MEL, in the assay on RXF 631 and in the assay with DMS-273 was > 100 µM (inactive) in each case.
Turning to `CCCCCCCCCCCCC(Br)C(=O)NCC(N)=O` (configuration not stated), the GI50 with DLD-1 is 12.9 µM (inactive); in the assay on DMS-114 it was 3.61 µM (inactive); in the assay with HOP-18, 14.3 µM (inactive); in the assay with XF498, 1.37 µM (inactive); in the assay with SNB-78, 12.4 µM (inactive); in the assay with KM-20L2 it was 20.4 µM (inactive). Moreover, the GI50 in the assay with M19-MEL was 15 µM (inactive); in the assay on RXF 631, 3.63 µM (inactive); in the assay on DMS-273 it was 11.7 µM (inactive).
Regarding `COC(=O)C(=O)OC1(C(C)=O)CC2(c3ccccc3)OC1(c1ccccc1)c1ccccc12` (configuration not stated), the GI50 was 18.6 µM (inactive) in the assay on DLD-1; 15.1 µM (inactive) with DMS-114; 52.8 µM (inactive) in the assay with HOP-18; 16.4 µM (inactive) with XF498; 27.8 µM (inactive) with SNB-78; 15.6 µM (inactive) in the assay with KM-20L2. Also, the figures for the GI50 with M19-MEL, with RXF 631 and with DMS-273 were 16.9 µM (inactive), 23.1 µM (inactive) and 15.2 µM (inactive), respectively.
